Reference: ChEMBL document CHEMBL3526128, “Covalent modification and time-dependent inhibition of human CYP2E1 by the meta-isomer of acetaminophen” (Drug Metab Dispos, 2012)

How the values were obtained:
Format in all cases: ADME
[1] = target: T1, CYP2E1 (Homo sapiens, UniProt P05181); test: Inhibition of human CYP2E1 assessed as chlorzoxazone 6-hydroxylase activity at 2.5 mM after 72 hrs preincubation by HPLC analysis (RVb = 100%); set-up: scale not given: the % may be the effect or the level left; conditions: probe chlorzoxazone (6-hydroxylation), read-out: Activity
T1 sequence (P05181 whole entry): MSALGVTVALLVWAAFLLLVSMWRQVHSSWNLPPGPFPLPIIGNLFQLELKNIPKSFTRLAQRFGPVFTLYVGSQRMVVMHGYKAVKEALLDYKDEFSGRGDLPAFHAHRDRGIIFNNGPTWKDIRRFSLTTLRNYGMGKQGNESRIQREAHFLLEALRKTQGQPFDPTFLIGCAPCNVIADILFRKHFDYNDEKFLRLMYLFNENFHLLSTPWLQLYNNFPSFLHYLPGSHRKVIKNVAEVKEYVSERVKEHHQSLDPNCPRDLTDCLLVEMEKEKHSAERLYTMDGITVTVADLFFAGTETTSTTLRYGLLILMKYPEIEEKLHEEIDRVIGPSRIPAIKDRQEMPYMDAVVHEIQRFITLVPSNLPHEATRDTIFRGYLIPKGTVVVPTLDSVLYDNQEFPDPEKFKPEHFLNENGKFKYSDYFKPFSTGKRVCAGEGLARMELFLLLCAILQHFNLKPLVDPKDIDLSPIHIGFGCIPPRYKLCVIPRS

[2] = target: T1, CYP2E1; test: Inhibition of human CYP2E1 assessed as chlorzoxazone 6-hydroxylase activity at 20 mM after 72 hrs preincubation by HPLC analysis (RVb = 100%); set-up: scale not given: the % may be the effect or the level left; conditions: probe chlorzoxazone (6-hydroxylation), read-out: Activity
[3] = target: T1, CYP2E1; test: Inhibition of human CYP2E1 assessed as chlorzoxazone 6-hydroxylase activity at 20 mM after 72 hrs preincubation by HPLC analysis in presence of 1 mM NADPH (RVb = 100%); set-up: scale not given: the % may be the effect or the level left; conditions: probe chlorzoxazone (6-hydroxylation), read-out: Activity
[4] = target: T1, CYP2E1; test: Inhibition of human CYP2E1 assessed as chlorzoxazone 6-hydroxylase activity at 40 mM after 72 hrs preincubation by HPLC analysis (RVb = 100%); set-up: scale not given: the % may be the effect or the level left; conditions: probe chlorzoxazone (6-hydroxylation), read-out: Activity
[5] = target: T2, Cytochrome P450 2E1 (Homo sapiens, UniProt P05181); test: Inhibition of human CYP2E1-mediated chlorzoxazone hydroxylase activity at 2.5 to 40 mM after 72 hrs by LC-MS/MS analysis in presence of 1 mM NADPH; conditions: recombinant enzyme, 40000 µM
T2 sequence (P05181 whole entry): as above

[6] = target: T1, CYP2E1; test: Inhibition of human CYP2E1 assessed as chlorzoxazone 6-hydroxylase activity at 20 mM after 72 hrs preincubation by HPLC analysis in presence of 1 mM NADPH and 5 mM glutathione (RVb = 100%); set-up: scale not given: the % may be the effect or the level left; conditions: probe chlorzoxazone (6-hydroxylation), read-out: Activity
[7] = target: T2, Cytochrome P450 2E1; test: Inhibition of human CYP2E1-mediated chlorzoxazone hydroxylase activity at 2.5 to 40 mM by LC-MS/MS analysis; conditions: recombinant enzyme, 40000 µM, TDE = time-dependent effect
[8] = target: T2, Cytochrome P450 2E1; test: (§1) Inhibition of human CYP2E1 assessed as chlorzoxazone 6-hydroxylase activity by HPLC analysis
[9] = target: T1, CYP2E1; test: as §1; conditions: human, probe chlorzoxazone (6-hydroxylation)
[10] = target: T1, CYP2E1; test: Inhibition of human CYP2E1 assessed as chlorzoxazone 6-hydroxylase activity at 40 mM after 72 hrs preincubation by HPLC analysis in presence of 1 mM NADPH (RVb = 100%); set-up: scale not given: the % may be the effect or the level left; conditions: probe chlorzoxazone (6-hydroxylation), read-out: Activity

Row | activity at 72 h, 2500 µM [1] [%] | activity at 72 h, 20000 µM [2] [%] | activity at 72 h, 20000 µM [3] [%] | activity at 72 h, 40000 µM [4] [%] | inhibition (INH) [5] | activity at 72 h, 20000 µM [6] [%] | inhibition (INH) [7] | Ki [8] [mM] | kinact [9] [s⁻¹] | activity at 72 h, 40000 µM [10] [%] | SMILES
1 | < 1 | – | – | – | – | – | – | – | – | – | Nn1nnc2ccccc21
2 | 97.6 | 89.3 | 64.8 | 65.7 | Active | 91.3 | tde | 9.5 | 0.000133 | 43.7 | CC(=O)Nc1cccc(O)c1 [METACETAMOL]
